Experimental data reported in PMC12363518, “Azobenzene-Modified Temperature-Responsive Short Elastin-like Peptides for Photo-Controlled Phase Transition” (ACS Synthetic Biology, 2025).
Numbered stars: 1 amine (or outer) side, 2 acyl side, 3 side chain; on linkers, the order of the positions; unused ones are H or OH. Bridge positions count the residues as written; N and C are the ends. Peptide text beside a SMILES is read from it. I, II: the chains in the order shown. X1 = O=C(c1ccc(N=Nc2ccc(C(=O)[*:2])cc2)cc1)[*:1]

What was measured:
[1] = Thermal isomerization in the dark and photostationary state, followed by UV–vis spectroscopy; format: physicochemical
Experimental: The thermal stability of the ELP–azobenzene conjugates was also investigated by using UV–vis spectroscopy. After measurements under “UV–vis–UV” conditions, each peptide solution was incubated in the dark, and spectral changes were monitored over time (Figure ). […] These findings indicate that the photoswitching behavior of this peptide was more readily controllable than that of the other analogues.
Additionally, the isomerization of Azb-2(K-F2) to a cis-enriched state was induced by irradiation with UV-A light (365 nm), which is a commercially available light source (Figure S4). […] On the other hand, when an LED light with a higher irradiance than that used for spectrum measurements was used as the light source, Azb-2(K-F2) reached a photostationary state in approximately 5 min (Figure S4B). Overall, based on the experimental results, Azb-2(K-F2) appears to be a promising easy-to-handle peptide with both temperature and photoresponsiveness.
The synthesized ELP–azobenzene conjugates were dissolved in PBS buffer (137 mM NaCl, 2.68 mM KCl, 10 mM Na2HPO4, and 2 mM KH2PO4, pH 7.4) to prepare 50 μM solutions. The time-dependent UV–vis spectra of each conjugate were recorded using a JASCO V-660 spectral photometer (JASCO Co., Tokyo) in a quartz cell (optical path length: 10 mm, volume: 400 μL). […] Initially, the absorption spectra of the dark-adapted solution of the ELP–azobenzene conjugate were measured to determine the irradiation wavelength corresponding to its π–π* band. Subsequently, the ELP–azobenzene conjugate solution was irradiated with light corresponding to the π–π* band for 60 min and the absorption spectra were recorded every 10 min. Next, the peptide solution was irradiated with visible light corresponding to the n–π* band for 60 min and the absorption spectra were recorded every 10 min. The peptide solution was then irradiated again with UV light for 60 min and the absorption spectra were recorded every 10 min. Finally, the peptide solution was incubated in the dark conditions and the absorption spectra were recorded every 1 h. […]

With `CC(C)[C@H](NC(=O)CNC(=O)[C@@H]1CCCN1C(=O)[C@H](Cc1ccccc1)NC(=O)CNC(=O)[C@@H](NC(=O)CNC(=O)[C@@H]1CCCN1C(=O)[C@H](Cc1ccccc1)NC(=O)[C@H](CCCCN)NC(=O)c1ccc(N=Nc2ccc(C(=O)N[C@@H](CCCCN)C(=O)N[C@@H](Cc3ccccc3)C(=O)N3CCC[C@H]3C(=O)NCC(=O)N[C@H](C(=O)NCC(=O)N[C@@H](Cc3ccccc3)C(=O)N3CCC[C@H]3C(=O)NCC(=O)N[C@H](C(=O)NCC(=O)O)C(C)C)C(C)C)cc2)cc1)C(C)C)C(=O)NCC(=O)O` [Azb-2(K-F2)] (I: KFPGVGFPGVG-OH / II: KFPGVGFPGVG-OH; linker I:N-II:N via X1) the peak wavelength π–π* was 330 nm, the “thermal stability of the cis-enriched state, 12 h” value ([1]; 37 °C for 12 h, light-protected, 50 μM in PBS, UV–vis spectra) was “remained in a cis-enriched state” and the “time to reach the photostationary state with LED light” value ([1]; UV-A 365 nm LED of higher irradiance than for the spectrum measurements) was “approximately 5 min”. For the same compound, the “thermal stability of the cis-enriched state, 3 days” value ([1]; dark, after 3 days, UV–vis spectra (Figure S3)) was “retained its cis-isomer-enriched state”.
